Results: patent US20060034780A1, “Dental compositions and methods” (The Boots Company, priority 2002, published 2006)

Test: Whitening of extracted teeth, CIE whiteness index by image analysis
Method: Extracted caries-free teeth collected from dental hospitals were briefly brushed to remove any skin tissue attached. The teeth were then sterilized by autoclaving at 121° C. for 25 mins. All teeth were stored in an airtight plastic container containing a solution of Phosphate Buffered Saline (PBS) with a few crystals of thymol as an antibacterial agent until required for use. Twenty four hours before the study, each tooth was glued onto a numbered glass microscope slide. A pellicle was formed on the teeth by soaking in sterilised artificial saliva with the composition set out in Table 1.
After the 24 hr period of pellicle formation, the teeth were then brushed with an Oral B Plaque remover electric toothbrush for 2 mins, with a standard fluoride toothpaste, the composition of which is set out in Table 2:
Excess toothpaste was removed by briefly rinsing each tooth with deionised water. The teeth were returned to a fresh aliquot of artificial saliva and then measured. The measured whiteness index (determined by image analysis as described below) was taken as the baseline against which subsequent measurements were compared.
[…] Teeth were returned to a fresh aliquot of artificial saliva and a Post-Bleach measurement taken.
FWA was applied to the teeth by immersion in a 500 ppm FWA solution (50 mg FWA in 100 ml deionised water stirred for 30 minutes) for 1 hr. The teeth were returned to a fresh aliquot of artificial saliva and a post-FWA measurement taken.
Each tooth was imaged using a Kodak DCS 410 camera, which was mounted 10 cm above and perpendicular to the specimen, using aperture F11 and a shutter speed of 1/10 second. The standardised lighting source comprised two UV tubes and two 6500K ‘daylight’ tubes. Each image was transferred to Adobe PhotoShop software. For each image, an 8 mm^2 area was analysed and an average Adobe L,a,b reading obtained using the software. All L,a,b values were converted to CIE L*,a*,b* and then to the CIE whiteness index W, using the equation: W=Y+800(xn−x)+1700(yn−y) where Y is the Y-tristimulus value of the specimen, x and y, and xn and yn are the chromaticity coordinates for the specimen and for the perfect diffuser for the CIE 1931 2° Standard Observer, respectively. Results

OO [Example H2O2, hydrogen peroxide]
average percentage increase in whiteness index (H2O2 alone: immersion in 15% hydrogen peroxide solution for 1 hr, vs baseline, six groups of three teeth): 17% | change in whiteness index (in words) (treatment with 15% H2O2, each group of teeth, vs baseline): increase in whiteness index

O=S(=O)(O)c1ccccc1C=Cc1ccc(-c2ccc(C=Cc3ccccc3S(=O)(=O)O)cc2)cc1 [FWA, 4,4′-bis(2-sulfostyryl)biphenyl]
change in whiteness index (in words) compared with treatment with H2O2 alone (FWA treatment after 15% H2O2 bleaching): further increase in whiteness | average percentage increase in whiteness index (combined treatment using chlorine dioxide (sodium chlorite bleach) and FWA (Tinopal CBS-X), vs baseline): 41% | average percentage increase in whiteness index (combined treatment: 15% H2O2 1 hr, then 500 ppm FWA solution 1 hr, vs baseline, six groups of three teeth): 24%

sodium chlorite
average percentage increase in whiteness index (bleach alone: sodium chlorite (generating chlorine dioxide in use) in place of H2O2, vs baseline): 8%
